Test results published in article PMC3914206.

Legend:
Test in all cases: KiNativ chemical proteomics profiling in HeLa and PC3 cell lysates
Type in all cases: binding
[1] = molecular target: T1, selected panels of kinases in HeLa and PC3 cell lysates (Homo sapiens, UniProt Q13418); conditions: 10 uM
T1 construct: endogenous in cells; host or cells: HeLa and PC3 cell lysates
T1 sequence (Q13418 1-452): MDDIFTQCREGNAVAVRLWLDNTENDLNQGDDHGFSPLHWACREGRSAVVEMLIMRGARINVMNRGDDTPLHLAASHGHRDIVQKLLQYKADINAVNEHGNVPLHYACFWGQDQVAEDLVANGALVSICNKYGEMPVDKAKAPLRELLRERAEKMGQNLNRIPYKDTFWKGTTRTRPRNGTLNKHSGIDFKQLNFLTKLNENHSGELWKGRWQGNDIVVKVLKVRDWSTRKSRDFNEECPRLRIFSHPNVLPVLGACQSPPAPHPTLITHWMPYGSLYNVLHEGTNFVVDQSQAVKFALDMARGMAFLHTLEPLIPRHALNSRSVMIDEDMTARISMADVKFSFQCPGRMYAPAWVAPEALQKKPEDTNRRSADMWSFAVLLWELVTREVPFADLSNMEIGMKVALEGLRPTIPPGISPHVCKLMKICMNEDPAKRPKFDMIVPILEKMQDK

[2] = molecular target: T2, selected panels of kinases in HeLa and PC3 cell lysates (Homo sapiens, UniProt Q99683); conditions: 10 uM; proteome HEL; peptide DIk[…]; labeling site Lys2
T2 construct: endogenous in cells; host or cells: HeLa and PC3 cell lysates

[3] = molecular target: T3, selected panels of kinases in HeLa and PC3 cell lysates (Homo sapiens, UniProt O75716); conditions: 10 uM, peptide DLk[…], labeling site Lys2
T3 construct: endogenous in cells; host or cells: HeLa and PC3 cell lysates
T3 sequence (O75716 whole entry): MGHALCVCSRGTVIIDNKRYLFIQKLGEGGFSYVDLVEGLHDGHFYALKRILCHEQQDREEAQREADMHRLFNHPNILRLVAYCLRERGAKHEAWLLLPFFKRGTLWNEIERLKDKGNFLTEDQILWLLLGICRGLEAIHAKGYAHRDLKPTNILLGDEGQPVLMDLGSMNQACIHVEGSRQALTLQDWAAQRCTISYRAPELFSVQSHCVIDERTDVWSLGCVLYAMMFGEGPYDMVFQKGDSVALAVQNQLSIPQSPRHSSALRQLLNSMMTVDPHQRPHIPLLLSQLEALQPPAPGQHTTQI

[4] = molecular target: T4, selected panels of kinases in HeLa and PC3 cell lysates (Homo sapiens, UniProt Q9UBS0); conditions: 10 uM; p70S6Kb; peptide DLk[…]; proteome HEL; labeling site Lys2
T4 construct: endogenous in cells; host or cells: HeLa and PC3 cell lysates
T4 sequence (Q9UBS0 whole entry): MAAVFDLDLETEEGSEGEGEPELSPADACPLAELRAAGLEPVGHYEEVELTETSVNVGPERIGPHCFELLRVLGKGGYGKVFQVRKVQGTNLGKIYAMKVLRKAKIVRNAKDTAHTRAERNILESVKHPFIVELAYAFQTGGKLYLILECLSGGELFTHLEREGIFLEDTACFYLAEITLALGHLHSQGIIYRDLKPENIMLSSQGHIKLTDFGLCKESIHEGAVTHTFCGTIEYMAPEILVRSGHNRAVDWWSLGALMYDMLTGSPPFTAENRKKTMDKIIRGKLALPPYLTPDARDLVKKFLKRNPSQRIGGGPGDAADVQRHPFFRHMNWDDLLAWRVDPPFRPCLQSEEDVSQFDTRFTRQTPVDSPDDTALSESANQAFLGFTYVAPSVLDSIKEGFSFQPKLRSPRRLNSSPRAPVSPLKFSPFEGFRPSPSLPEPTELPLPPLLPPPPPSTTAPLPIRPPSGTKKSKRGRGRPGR

[5] = molecular target: T5, selected panels of kinases in HeLa and PC3 cell lysates (Homo sapiens, UniProt P15735); conditions: 10 uM; PHKg2; peptide ATGHEFAVkIMEVTAER; proteome PC3; labeling site Lys1
T5 construct: endogenous in cells; host or cells: HeLa and PC3 cell lysates
T5 sequence (P15735 whole entry): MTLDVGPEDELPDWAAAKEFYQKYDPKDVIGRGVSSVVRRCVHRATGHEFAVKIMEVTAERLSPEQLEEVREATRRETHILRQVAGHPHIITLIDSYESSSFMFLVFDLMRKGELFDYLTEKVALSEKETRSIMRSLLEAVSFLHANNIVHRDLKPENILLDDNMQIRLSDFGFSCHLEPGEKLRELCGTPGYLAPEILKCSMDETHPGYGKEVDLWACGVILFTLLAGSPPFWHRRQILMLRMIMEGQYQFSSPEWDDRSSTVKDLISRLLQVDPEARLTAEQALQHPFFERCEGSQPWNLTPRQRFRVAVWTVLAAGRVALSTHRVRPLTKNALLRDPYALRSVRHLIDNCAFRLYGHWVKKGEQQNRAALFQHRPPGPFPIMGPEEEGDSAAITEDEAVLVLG

[6] = molecular target: T6, selected panels of kinases in HeLa and PC3 cell lysates (Homo sapiens, UniProt Q9Y2H1); conditions: 10 uM; proteome PC3; peptide DTGHIYAMkILR; labeling site Lys1
T6 construct: endogenous in cells; host or cells: HeLa and PC3 cell lysates
T6 sequence (Q9Y2H1 whole entry): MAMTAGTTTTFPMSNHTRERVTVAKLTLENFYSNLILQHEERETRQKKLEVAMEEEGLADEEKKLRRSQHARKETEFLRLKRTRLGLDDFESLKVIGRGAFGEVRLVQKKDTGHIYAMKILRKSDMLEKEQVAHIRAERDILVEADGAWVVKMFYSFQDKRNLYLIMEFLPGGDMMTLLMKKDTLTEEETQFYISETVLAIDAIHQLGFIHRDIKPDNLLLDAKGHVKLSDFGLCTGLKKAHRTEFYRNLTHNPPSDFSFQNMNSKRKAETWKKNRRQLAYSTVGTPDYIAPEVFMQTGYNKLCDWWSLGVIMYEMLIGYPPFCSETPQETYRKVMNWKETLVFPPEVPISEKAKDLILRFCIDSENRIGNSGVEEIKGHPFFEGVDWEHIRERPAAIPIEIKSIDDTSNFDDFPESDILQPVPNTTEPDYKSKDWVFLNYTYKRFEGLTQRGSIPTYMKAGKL

[7] = molecular target: T7, selected panels of kinases in HeLa and PC3 cell lysates (Homo sapiens, UniProt Q96BR1); conditions: 10 uM; SGK3; peptide FYAVkVLQK; proteome HEL; labeling site Lys1
T7 construct: endogenous in cells; host or cells: HeLa and PC3 cell lysates
T7 sequence (Q96BR1 whole entry): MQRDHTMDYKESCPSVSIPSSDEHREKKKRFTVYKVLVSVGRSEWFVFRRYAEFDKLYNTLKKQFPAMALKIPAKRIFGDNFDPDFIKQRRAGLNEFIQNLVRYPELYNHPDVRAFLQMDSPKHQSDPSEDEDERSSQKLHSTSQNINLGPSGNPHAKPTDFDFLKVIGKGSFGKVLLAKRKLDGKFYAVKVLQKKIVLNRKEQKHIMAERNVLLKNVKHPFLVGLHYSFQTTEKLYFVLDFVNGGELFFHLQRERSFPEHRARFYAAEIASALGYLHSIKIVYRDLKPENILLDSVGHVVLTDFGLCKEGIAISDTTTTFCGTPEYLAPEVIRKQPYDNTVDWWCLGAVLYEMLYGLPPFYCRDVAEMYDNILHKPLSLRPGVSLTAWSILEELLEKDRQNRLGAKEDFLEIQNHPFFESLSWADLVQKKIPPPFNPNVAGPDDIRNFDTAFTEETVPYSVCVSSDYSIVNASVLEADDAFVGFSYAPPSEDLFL

[8] = molecular target: T8, selected panels of kinases in HeLa and PC3 cell lysates (Homo sapiens, UniProt P45985); conditions: 10 uM, proteome PC3
T8 construct: endogenous in cells; host or cells: HeLa and PC3 cell lysates
T8 sequence (P45985 1-399): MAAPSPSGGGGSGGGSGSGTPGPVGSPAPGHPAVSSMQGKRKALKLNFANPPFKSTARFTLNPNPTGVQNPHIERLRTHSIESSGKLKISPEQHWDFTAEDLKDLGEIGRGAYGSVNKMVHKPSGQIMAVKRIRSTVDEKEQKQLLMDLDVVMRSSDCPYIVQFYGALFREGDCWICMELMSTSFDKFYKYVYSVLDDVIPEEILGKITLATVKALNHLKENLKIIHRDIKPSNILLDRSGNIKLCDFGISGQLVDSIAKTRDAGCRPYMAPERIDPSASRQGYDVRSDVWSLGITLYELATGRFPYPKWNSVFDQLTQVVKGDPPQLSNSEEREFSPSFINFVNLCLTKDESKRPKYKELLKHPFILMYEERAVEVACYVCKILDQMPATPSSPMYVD

[9] = molecular target: T9, selected panels of kinases in HeLa and PC3 cell lysates (Homo sapiens, UniProt Q9UKI8); conditions: 10 uM, TLK1
T9 construct: endogenous in cells; host or cells: HeLa and PC3 cell lysates
T9 sequence (Q9UKI8 1-766): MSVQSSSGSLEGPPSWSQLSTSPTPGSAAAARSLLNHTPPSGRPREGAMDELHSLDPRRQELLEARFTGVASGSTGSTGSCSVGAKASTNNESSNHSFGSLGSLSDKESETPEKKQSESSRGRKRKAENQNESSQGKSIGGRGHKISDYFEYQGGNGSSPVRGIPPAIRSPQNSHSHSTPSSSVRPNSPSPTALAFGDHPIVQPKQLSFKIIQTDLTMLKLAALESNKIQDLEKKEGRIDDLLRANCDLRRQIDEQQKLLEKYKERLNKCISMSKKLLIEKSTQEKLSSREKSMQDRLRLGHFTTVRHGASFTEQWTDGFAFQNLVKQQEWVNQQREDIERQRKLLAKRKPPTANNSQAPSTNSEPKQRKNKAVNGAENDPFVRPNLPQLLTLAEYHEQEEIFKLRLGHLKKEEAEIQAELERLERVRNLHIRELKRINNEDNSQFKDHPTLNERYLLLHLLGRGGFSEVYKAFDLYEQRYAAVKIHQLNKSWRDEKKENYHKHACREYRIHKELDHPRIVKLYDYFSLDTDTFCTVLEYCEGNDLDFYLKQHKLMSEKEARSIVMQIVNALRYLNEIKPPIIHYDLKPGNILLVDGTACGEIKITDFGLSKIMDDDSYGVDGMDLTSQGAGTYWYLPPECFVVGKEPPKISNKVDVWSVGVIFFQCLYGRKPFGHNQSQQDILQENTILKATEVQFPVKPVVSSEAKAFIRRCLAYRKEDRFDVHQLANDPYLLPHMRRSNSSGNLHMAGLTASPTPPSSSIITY

[10] = molecular target: T10, selected panels of kinases in HeLa and PC3 cell lysates (Homo sapiens, UniProt Q9H2G2); conditions: 10 uM, SLK
T10 construct: endogenous in cells; host or cells: HeLa and PC3 cell lysates
T10 sequence (Q9H2G2 whole entry): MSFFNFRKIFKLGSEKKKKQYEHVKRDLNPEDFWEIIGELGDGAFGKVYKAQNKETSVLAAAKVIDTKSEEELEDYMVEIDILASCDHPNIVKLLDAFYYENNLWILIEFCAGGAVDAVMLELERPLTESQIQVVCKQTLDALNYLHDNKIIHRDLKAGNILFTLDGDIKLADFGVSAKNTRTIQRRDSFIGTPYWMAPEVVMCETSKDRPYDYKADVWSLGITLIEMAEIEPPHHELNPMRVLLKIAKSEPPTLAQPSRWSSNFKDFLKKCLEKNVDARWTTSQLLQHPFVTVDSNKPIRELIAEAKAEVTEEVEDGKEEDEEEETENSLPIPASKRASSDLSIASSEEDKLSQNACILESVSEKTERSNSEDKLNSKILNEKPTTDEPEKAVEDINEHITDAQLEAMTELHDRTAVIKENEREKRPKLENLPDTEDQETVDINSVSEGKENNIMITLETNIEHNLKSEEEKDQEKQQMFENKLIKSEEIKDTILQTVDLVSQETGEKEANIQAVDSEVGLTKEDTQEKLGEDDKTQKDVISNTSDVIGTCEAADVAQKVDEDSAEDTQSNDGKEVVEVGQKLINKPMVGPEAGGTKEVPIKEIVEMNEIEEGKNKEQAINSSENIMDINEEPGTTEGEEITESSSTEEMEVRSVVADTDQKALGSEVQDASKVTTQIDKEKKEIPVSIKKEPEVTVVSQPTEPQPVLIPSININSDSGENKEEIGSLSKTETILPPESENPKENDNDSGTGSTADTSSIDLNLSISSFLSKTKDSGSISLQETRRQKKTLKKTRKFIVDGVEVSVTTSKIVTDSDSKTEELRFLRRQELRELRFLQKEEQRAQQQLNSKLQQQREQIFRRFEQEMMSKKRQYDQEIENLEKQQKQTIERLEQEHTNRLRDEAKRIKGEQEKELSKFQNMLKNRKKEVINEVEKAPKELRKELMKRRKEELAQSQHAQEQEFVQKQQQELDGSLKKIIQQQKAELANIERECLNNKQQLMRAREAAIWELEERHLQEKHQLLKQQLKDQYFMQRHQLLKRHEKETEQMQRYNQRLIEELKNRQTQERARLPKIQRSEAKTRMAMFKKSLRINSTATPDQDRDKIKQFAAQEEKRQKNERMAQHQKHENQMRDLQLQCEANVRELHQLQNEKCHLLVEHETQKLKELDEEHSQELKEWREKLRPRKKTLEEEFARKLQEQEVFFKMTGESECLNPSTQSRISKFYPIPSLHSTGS

[11] = molecular target: T11, selected panels of kinases in HeLa and PC3 cell lysates (Homo sapiens, UniProt P20594); conditions: 10 uM; proteome PC3; peptide […]k[…]; labeling site Lys2
T11 construct: endogenous in cells; host or cells: HeLa and PC3 cell lysates
T11 sequence (P20594 23-1047): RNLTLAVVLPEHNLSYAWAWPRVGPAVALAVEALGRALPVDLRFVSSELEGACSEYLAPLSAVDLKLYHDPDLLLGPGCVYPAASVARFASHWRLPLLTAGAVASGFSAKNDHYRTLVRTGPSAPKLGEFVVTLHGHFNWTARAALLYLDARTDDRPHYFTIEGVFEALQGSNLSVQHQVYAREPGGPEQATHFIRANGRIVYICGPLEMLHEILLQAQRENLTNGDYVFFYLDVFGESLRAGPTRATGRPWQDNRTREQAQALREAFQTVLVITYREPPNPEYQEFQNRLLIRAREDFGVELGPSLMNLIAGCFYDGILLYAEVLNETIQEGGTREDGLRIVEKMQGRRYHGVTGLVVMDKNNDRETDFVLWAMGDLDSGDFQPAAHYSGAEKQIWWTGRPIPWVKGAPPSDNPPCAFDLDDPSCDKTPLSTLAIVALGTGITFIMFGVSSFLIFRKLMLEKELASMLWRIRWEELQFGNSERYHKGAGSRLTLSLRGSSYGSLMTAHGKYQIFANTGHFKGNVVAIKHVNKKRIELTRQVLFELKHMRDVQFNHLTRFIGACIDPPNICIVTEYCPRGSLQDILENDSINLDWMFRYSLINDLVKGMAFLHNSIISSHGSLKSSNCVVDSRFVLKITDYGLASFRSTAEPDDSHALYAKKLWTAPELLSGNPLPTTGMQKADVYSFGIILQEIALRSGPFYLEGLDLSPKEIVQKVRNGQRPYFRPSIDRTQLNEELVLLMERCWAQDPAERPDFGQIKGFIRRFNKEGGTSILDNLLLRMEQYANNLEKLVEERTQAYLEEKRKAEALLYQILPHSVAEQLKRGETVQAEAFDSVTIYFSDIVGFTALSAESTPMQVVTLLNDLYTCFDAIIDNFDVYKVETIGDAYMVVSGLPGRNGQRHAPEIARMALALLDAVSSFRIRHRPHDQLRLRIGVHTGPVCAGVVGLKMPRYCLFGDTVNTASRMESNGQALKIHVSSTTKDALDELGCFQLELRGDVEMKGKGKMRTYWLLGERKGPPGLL

[12] = proteome HEL, peptide WQGNDIVVkVLK, labeling site Lys1
[13] = proteome PC3, peptide ISMADVkFSFQCPGR, labeling site Protein Kinase Domain
[14] = proteome PC3, peptide WQGNDIVVkVLK, labeling site Lys1
[15] = peptide DIkPSNILLDR, labeling site Lys2
[16] = peptide […]kR, labeling site Lys1
[17] = peptide YAAVkIHQLNK, proteome HEL, labeling site Lys1
[18] = peptide YAAVkIHQLNK, proteome PC3, labeling site Lys1
[19] = peptide […]k[…], proteome HEL, labeling site Lys2
[20] = peptide […]k[…], proteome PC3, labeling site Lys2
[21] = peptide DLk[…], proteome HEL, labeling site Lys2
[22] = peptide DLk[…], proteome PC3, labeling site Lys2
[23] = peptide ETSVLAAAkVIDTK, proteome PC3, labeling site Lys1

| SMILES | % Inhibiton, ILK [1, 12] | % Inhibiton, ILK [1, 13] | % Inhibiton, ILK [1, 14] | % Inhibiton, MAP3K5 [2] | % Inhibiton, MPSK1 ([3]; proteome HEL) | % Inhibiton, MPSK1 ([3]; proteome PC3) | % Inhibition p70S6Kb [4] | % Inhibition PHKg2 [5] | % Inhibiton, NDR2 [6] | % Inhibition SGK3 [7] | % Inhibiton, MAP2K4 [8, 15] | % Inhibiton, MAP2K4 [8, 16] | % Inhibition TLK1 [9, 17] | % Inhibition TLK1 [9, 18] | % Inhibition TLK1 [9, 19] | % Inhibition TLK1 [9, 20] | % Inhibition SLK [10, 21] | % Inhibition SLK [10, 22] | % Inhibition SLK [10, 23] | % Inhibiton, ANPb [11] |
| --- | --- | --- | --- | --- | --- | --- | --- | --- | --- | --- | --- | --- | --- | --- | --- | --- | --- | --- | --- | --- |
| COc1cc(C(=O)N2CCC(N3CCN(C)CC3)CC2)ccc1Nc1ncc2c(n1)N(C1CCCC1)c1ccccc1C(=O)N2C [Compound 25, 11-cyclopentyl-2-((2-methoxy-4-(4-(4-methylpiperazin-1-yl)piperidine-1-carbonyl)phenyl)amino)-5-methyl-5H-benzo[e]pyrimido[5,4-b][1,4]diazepin-6(11H)-one] | -3.0% | 8.4% | -5.9% | 17.3% | 29.5% | -4.3% | 8.4% | 8.1% | -0.235% | 8.2% | -7.6% | -9.0% | -21.7% | -9.7% | -8.4% | -12.2% | 10.4% | -11.4% | -17.6% | -11.4% |
| CCOc1cc(C(=O)N2CCC(N3CCN(C)CC3)CC2)ccc1Nc1ncc2c(n1)N(C1CCCC1)c1ccccc1C(=O)N2C [Compound 26] | 19.8% | 2% | -69.5% | -8.4% | -9.4% | 5.8% | -21.4% | -3.8% | 8.2% | 25.5% | -14.4% | -7.3% | 35.7% | 6.2% | 3.6% | 6.8% | 25.7% | 2.9% | -35.8% | 24.3% |
